Results taken from patent US9073884B2, “Anti-inflammatory and quorum sensing inhibition compounds and methods of making and using them” (The Regents of the University of California, priority 2010, dated 2015).

Key:
vibrio harveyi = vibrio harveyi assay (quorum sensing inhibition); format: cell-based
[1] = test system: Escherichia coli JB525 (E. coli MT102 harboring the gfp plasmid pJBA132); assay: Escherichia coli JB525 assay (quorum sensing inhibition); format: cell-based

O=C(/C=C/CCl)O[C@@H]1COC(=O)C1 [Honaucin A] was tested, and the “inhibition of AI-1 and AI-2 mediated quorum sensing” value (vibrio harveyi) was “good inhibition” and the “inhibition of AI-1 and AI-2 mediated quorum sensing” value [1] was “good inhibition”.
